# Assay results from patent US8431593B2, “Heteroaryl amide derivatives” (H. Lundbeck A/S, priority 2006, dated 2013).
# Where two headings read alike, the source gives them in different places.
# Molecular target: T1, P2X7 receptor (Homo sapiens, UniProt Q99572)
# T1 construct: host or cells: SH-SY5Y
# T1 sequence (Q99572 1-595): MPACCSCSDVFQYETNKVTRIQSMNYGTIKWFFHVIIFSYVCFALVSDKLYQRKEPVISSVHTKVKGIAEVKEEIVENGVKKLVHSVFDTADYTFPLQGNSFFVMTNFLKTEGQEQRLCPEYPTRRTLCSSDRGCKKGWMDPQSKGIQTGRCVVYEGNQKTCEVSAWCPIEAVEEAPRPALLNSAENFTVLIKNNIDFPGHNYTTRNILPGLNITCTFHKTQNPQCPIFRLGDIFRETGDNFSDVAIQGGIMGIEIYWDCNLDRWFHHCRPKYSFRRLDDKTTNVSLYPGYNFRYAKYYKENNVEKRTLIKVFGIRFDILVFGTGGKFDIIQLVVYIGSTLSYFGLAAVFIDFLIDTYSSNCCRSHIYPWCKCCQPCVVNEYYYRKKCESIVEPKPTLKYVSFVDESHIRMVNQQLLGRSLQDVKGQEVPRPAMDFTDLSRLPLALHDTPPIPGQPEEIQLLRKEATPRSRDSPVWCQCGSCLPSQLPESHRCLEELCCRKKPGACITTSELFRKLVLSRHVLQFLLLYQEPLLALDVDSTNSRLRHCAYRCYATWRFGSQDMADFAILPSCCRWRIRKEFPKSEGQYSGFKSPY
# Assay: P2X7 calcium mobilization assay, high throughput, antagonist activity (Example 4A)
# Type: cell-based
# Method in brief: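 Cells plated at 100,000/well the day before were dye-loaded for 1 h, then incubated 1 h at room temperature with test compound before agonist-triggered calcium mobilization was read on FLIPR Tetra. Maximum RFU was corrected by subtracting the no-agonist control and related to the agonist-control response.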
# [1] = 50% decrease in the fluorescence response of cells exposed to 80 μM of 2′(3′)-O-(4-benzoyl-benzoyl)adenosine 5′-triphosphate, determined as in Example 4A, read-out: IC50
# [2] = 50% decrease in the fluorescence response of cells exposed to 80 μM of 2′(3′)-O-(4-benzoyl-benzoyl)adenosine 5′-triphosphate, Example 4A, read-out: IC50
# [3] = fluorescence response of cells exposed to 80 μM 2′(3′)-O-(4-benzoyl-benzoyl)adenosine 5′-triphosphate, Example 4A, read-out: IC50
# [4] = 50% decrease in the fluorescence response of cells exposed to 80 μM 2′(3′)-O-(4-benzoyl-benzoyl)adenosine 5′-triphosphate, Example 4A, read-out: IC50
structure (smiles),measurement,setting,value
"CC(C)CC(CNC(=O)c1cccc2nc(CC(Cc3ccccc3)C(=O)O)cn12)c1ccc(C(F)(F)F)cc1 (centres unmarked) [Compound 1008, 2-benzyl-3-[5-({4-methyl-2-[4-(trifluoromethyl)phenyl]pentyl}carbamoyl)imidazo[1,2-a]pyridin-2-yl] propanoic acid]",IC50,[1],< 2000 nM
"CC(C)CC(CNC(=O)c1cccc2nc(CC(=O)O)cn12)c1ccc(C(F)(F)F)cc1 (centres unmarked) [Compound 965, [5-({4-methyl-2-[4-(trifluoromethyl)phenyl]pentyl}carbamoyl)imidazo[1,2-a]pyridin-2-yl] acetic acid]",IC50,[1],< 2000 nM
"Cc1cnc(N(C)Cc2cn3c(C(=O)NCC45CC6CC(CC(C6)C4)C5)cccc3n2)nc1N [Compound 772, N-(adamantan-1-ylmethyl)-2-{[(4-amino-5-methylpyrimidin-2-yl)(methyl)amino]methyl}imidazo [1,2-a]pyridine-5-carboxamide]",IC50,[2],< 2000 nM
"O=C(CC12CC3CC(CC(C3)C1)C2)Nc1cccc2nc(C(=O)N3CCOCC3)cn12 [Compound 364, 2-adamantan-1-yl-N-[2-(morpholin-4-ylcarbonyl)imidazo[1,2-a]pyridin-5-yl]acetamide]",IC50,[3],< 2000 nM
"CCOC(=O)C(CC(=O)N(CC)CC)c1cn2c(C(=O)NCC34CC5CC(CC(C5)C3)C4)cccc2n1 (centres unmarked) [Compound 810, ethyl 2-{5-[(adamantan-1-ylmethyl)carbamoyl]imidazo[1,2-a]pyridin-2-yl}-4-(diethylamino)-4-oxobutanoate]",IC50,[2],< 2000 nM
"CCN(CC)C(=O)c1cn2c(C(=O)NC[C@@H]3CC[C@H]4C[C@@H]3C4(C)C)cccc2n1 [Compound 477, 5-N-{[(1S,2R,5S)-6,6-dimethylbicyclo[3.1.1]hept-2-yl]methyl}-2-N,2-N-diethylimidazo[1,2-a]pyridine-2,5-dicarboxamide]",IC50,[4],< 2000 nM
"CC(C)CC(CNC(=O)c1cccc2nc(CCN3CCCC3)cn12)c1ccc(Cl)cc1 (centres unmarked) [Compound 1041, N-[2-(4-chlorophenyl)-4-methylpentyl]-2-(2-pyrrolidin-1-ylethyl) imidazo[1,2-a]pyridine-5-carboxamide]",IC50,"P2X7 calcium mobilization, Example 4A, 50% decrease in the fluorescence response of cells exposed to 80 μM of (2′(3′)-O-(4-benzoyl-benzoyl)adenosine 5′-triphosephate), read-out: IC50",< 2000 nM
"CCN(CCO)C(=O)c1cn2c(NC(=O)CC34CC5CC(CC(C5)C3)C4)cccc2n1 [Compound 414, 5-[(adamantan-1-ylacetyl)amino]-N-ethyl-N-(2-hydroxyethyl)imidazo [1,2-a]pyridine-2-carboxamide]",IC50,[3],< 2000 nM
"O=C(NCC12CC3CC(CC(C3)C1)C2)c1cccc2nc(Cn3cnc(CO)c3)cn12 [Compound 199, N-(adamantan-1-ylmethyl)-2-{[4-(hydroxymethyl)-1H-imidazol-1-yl]methyl}imidazo[1,2-a]pyridine-5-carboxamide]",IC50,"SH-SY5Y cells, 50% decrease in fluorescence response to 80 μM BzATP, read-out: IC50",< 2000 nM
"O=C(NCC1CCCCC1)c1cccc2nc(CCl)cn12 [Compound 142, 2-(chloromethyl)-N-(cyclohexylmethyl)imi-dazo[1,2-a]pyridine-5-carboxamide]",IC50,,< 2000 nM
"CCN(CCO)Cc1cn2c(C(=O)NCC34CC5CC(CC(C5)C3)C4)cccc2n1 [Compound 553, N-(adamantan-1-ylmethyl)-2-{[ethyl(2-hydroxyethyl)amino]methyl}imidazo[1,2-a]pyridine-5-carboxamide]",IC50,[4],< 2000 nM
"CC(C)CC(CNC(=O)c1cccc2nc(C(=O)N3CCC4(CC3)OCCO4)cn12)c1ccccc1 (centres unmarked) [Compound 263, 2-(1,4-dioxa-8-azaspiro[4.5]dec-8-ylcarbonyl)-N-(4-methyl-2-phenylpentyl)imidazo [1,2-a]pyridine-5-carboxamide]",IC50,,< 2000 nM
"CC1CCCCN1C1CCN(C(=O)c2cn3c(C(=O)NCC45CC6CC(CC(C6)C4)C5)cccc3n2)CC1 (centres unmarked) [Compound 699, N-(adamantan-1-ylmethyl)-2-[(2-methyl-1,4′-bipiperidin-1′-yl)carbonyl]imidazo[1,2-a]pyridine-5-carboxamide]",IC50,[2],< 2000 nM
"O=C(NCC12CC3CC(CC(C3)C1)C2)c1cccc2nc(C(=O)N3CCN([C@@H]4CCCC[C@H]4O)CC3)cn12 [Compound 701, N-(adamantan-1-ylmethyl)-2-({4-[(1R,2R)-2-hydroxycyclohexyl]piperazin-1-yl}carbonyl)imidazo[1,2-a]pyridine-5-carboxamide]",IC50,[2],< 2000 nM
